One experiment concerns the target T1, androgen receptor (Homo sapiens, UniProt P10275, T878A).
T1 construct: Destabilization of AR in LNCaP Cells by Test Substances; endogenous in cells; host or cells: LNCaP (human prostate cell line)
T1 sequence (P10275 1-920 T878A): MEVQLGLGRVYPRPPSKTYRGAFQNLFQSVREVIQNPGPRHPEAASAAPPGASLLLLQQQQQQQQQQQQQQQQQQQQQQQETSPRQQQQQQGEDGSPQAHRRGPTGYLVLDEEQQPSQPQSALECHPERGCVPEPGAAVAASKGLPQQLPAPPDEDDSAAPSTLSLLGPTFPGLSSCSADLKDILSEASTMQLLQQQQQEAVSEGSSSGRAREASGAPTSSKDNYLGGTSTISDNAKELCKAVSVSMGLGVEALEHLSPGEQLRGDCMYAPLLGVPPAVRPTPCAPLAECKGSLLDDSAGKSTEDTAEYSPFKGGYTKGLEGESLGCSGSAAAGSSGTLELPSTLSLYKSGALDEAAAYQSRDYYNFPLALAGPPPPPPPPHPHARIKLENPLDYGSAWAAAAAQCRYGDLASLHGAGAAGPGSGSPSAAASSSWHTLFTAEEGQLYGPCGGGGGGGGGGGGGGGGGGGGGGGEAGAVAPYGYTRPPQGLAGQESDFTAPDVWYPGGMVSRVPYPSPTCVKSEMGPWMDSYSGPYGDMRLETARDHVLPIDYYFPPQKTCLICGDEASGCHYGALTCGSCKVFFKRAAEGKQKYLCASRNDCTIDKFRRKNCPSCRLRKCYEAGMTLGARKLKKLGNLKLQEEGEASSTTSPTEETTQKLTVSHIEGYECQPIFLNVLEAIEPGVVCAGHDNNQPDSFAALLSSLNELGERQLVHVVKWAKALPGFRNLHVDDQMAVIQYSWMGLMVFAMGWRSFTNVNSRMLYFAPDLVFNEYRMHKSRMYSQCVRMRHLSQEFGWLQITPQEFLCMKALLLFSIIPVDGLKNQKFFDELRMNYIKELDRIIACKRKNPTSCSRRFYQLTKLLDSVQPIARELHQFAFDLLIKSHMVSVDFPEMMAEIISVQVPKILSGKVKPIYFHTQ
The format is cell-based.

In the next experiment the test system is LNCaP cells. Description: Inhibition of the proliferation of LNCaP cells (crystal violet assay). The class given is cell-based, human. Conditions: for IC50 / inhibition at 1 µM: Homo sapiens, LNCaP; for IC50: 7 to 8 days; for antiproliferative action (in words): LNCaP cells. The procedure: For the proliferation assay, 6000 LNCaP cells/well (Horoszewicz et al. Cancer Res. 1983, 43, 1809–1817) in a microtiter plate (96-well) in 50 μl of RPMI1640 medium are grown with 5% CCS and cultivated as in Model 1. After 24 hours, the cells receive 50 μl of 2×-concentrated test substance, diluted in culture medium. The solvent concentration is 0.5% DMSO. After 4 days, the cells receive another 100 μl of 1×-concentrated test substance, diluted in culture medium. After 7 to 8 days, the proliferation rate of the cells is determined by means of crystal violet assay (Gillies et al. Anal. Biochem. 1986, 159, 109–113). To determine the antagonism, the substance treatment is performed in the presence of […] of R1881 (1:1000 dilution of ethanolic solution). Control cells receive only 0.5% DMSO. For the agonism, the cells are treated only with test substance (without R1881).

The mark [1] stands for this setting: LNCaP cells, 48 h, 1 μM, % of DMSO control.
Setting [2] is: read-out: IC50 inhibition of the proliferation of LNCaP cells, in the presence of 0.1 nmol of R1881.
The mark [3] stands for this setting: 1 μM test substance, compared to cell growth in the presence of 0.1 nmol of R1881, read-out: % Inhibition at 1 μM.
Setting [4] is: LNCaP cells, 48 h, 10 μM, % of DMSO control.
[5] abbreviates: in the presence of 0.1 nmol of R1881, read-out: IC50 inhibition of the proliferation of LNCaP cells.

Like-named read-outs stand apart in the source and are kept apart here.

As usually defined, the inhibition is the drop in the measured response relative to a control, in per cent.

Consider `CC1(C)C[C@@H](CN2CCCC2)N(CCCCCCCN2CCN(c3ccc(C#N)c(C(F)(F)F)c3)C2=S)C1=O` [Example 56, 4-[3-[7-[(2S)-4,4-Dimethyl-5-oxo-2-(pyrrolidin-1-ylmethyl)pyrrolidin-1-yl]heptyl]-2-thioxoimidazolidin-1-yl]-2-(trifluoromethyl)benzonitrile], for which the “AR Content at 1 μM” value at androgen receptor (setting [1]) is 24%.
`C[C@@H]1CC[C@H](C)N1CCCCCCCCN1C(=S)N(c2ccc(C#N)c(C(F)(F)F)c2)C(=O)C1(C)C` [Example 37, 4-[3-[8-[(2R,5S)-rel-2,5-Dimethylpyrrolidin-1-yl]octyl]-4,4-dimethyl-5-oxo-2-thioxoimidazolidin-1-yl]-2-(trifluoromethyl)benzonitrile]: the “AR Content at 1 μM” value at androgen receptor (setting [1]) worked out at 57%. In addition, the IC50 in the experiment on LNCaP cells (setting [2]) was determined as 11 nM. Besides, the inhibition at 1 µM in the experiment on LNCaP cells (setting [3]) stood at 99%.
For `CC1(C)C(=O)N(c2ccc(C#N)c(C(F)(F)F)c2)C(=S)N1CCCCO` [Example 77 USRe 35956, 4-[3-(4-Hydroxybutyl)-4,4-dimethyl-5-oxo-2-thioxoimidazolidin-1-yl]-2-(trifluoromethyl)benzonitrile, reference compound], at androgen receptor, the “AR Content at 1 μM” value is given as 230% and the “AR Content at 10 μM” value came to 180%. The inhibition at 1 µM in the experiment with LNCaP cells (read-out: % Inhibition at 1 μM, 1 μM test substance, compared to cell growth in the presence of 0.1 nmol of R1881) worked out at 34%. For the same molecule, the IC50 with LNCaP cells (setting [2]) is over 10000 nM. Further, in the experiment with LNCaP cells, the “antiproliferative action (in words)” value was “little or no antiproliferative action”.
In the case of `CC1(C)C(=O)N(c2ccc(C#N)c(C(F)(F)F)c2)C(=S)N1CCO` [Example 71 USRe 35956, 4-[3-(2-Hydroxyethyl)-4,4-dimethyl-5-oxo-2-thioxoimidazolidin-1-yl]-2-(trifluoromethyl)benzonitrile, reference compound], the “AR Content at 1 μM” value on androgen receptor (setting [1]) is recorded as 164%. The “AR Content at 10 μM” value at androgen receptor (setting [4]) was found to be 191%. Besides, the IC50 with LNCaP cells (setting [2]) was over 10000 nM. Besides, the inhibition at 1 µM with LNCaP cells (setting [3]) is 9%. For the same molecule, the “antiproliferative action (in words)” value in the experiment with LNCaP cells is “little or no antiproliferative action”.
For `CC1(C)C(=O)N(c2ccc(C#N)c(C(F)(F)F)c2)C(=S)N1CCCCCCCN1CCC[C@@H]1CO` [Example 8, 4-[3-[7-[(2R)-2-(Hydroxymethyl)pyrrolidin-1-yl]heptyl]-4,4-dimethyl-5-oxo-2-thioxoimidazolidin-1-yl]-2-(trifluoromethyl)benzonitrile], the inhibition at 1 µM in the experiment on LNCaP cells (setting [3]) came to 101%. Also, in the experiment on LNCaP cells (setting [5]), the IC50 was 11 nM.
`CC1(C)C(=O)N(c2ccc(C#N)c(C(F)(F)F)c2)C(=S)N1CCCCCCCN1CCC[C@H]1CO` [Example 9, 4-[3-[7-[(2S)-2-(Hydroxymethyl)pyrrolidin-1-yl]heptyl]-4,4-dimethyl-5-oxo-2-thioxoimidazolidin-1-yl]-2-(trifluoromethyl)benzonitrile]: the “AR Content at 1 μM” value at androgen receptor (setting [1]) is 63%. For the same molecule, the IC50 in the experiment on LNCaP cells (setting [2]) worked out at 26 nM. In addition, in the experiment with LNCaP cells (setting [3]), the inhibition at 1 µM came to 92%.
As for `CC(C)(O)[C@H]1CCCN1CCCCCCCCN1C(=S)N(c2ccc(C#N)c(C(F)(F)F)c2)C(=O)C1(C)C` [Example 44, 4-[3-[8-[(2R)-2-(1-Hydroxy-1-methylethyl)pyrrolidin-1-yl]octyl]-4,4-dimethyl-5-oxo-2-thioxoimidazolidin-1-yl]-2-(trifluoromethyl)benzonitrile], the inhibition at 1 µM in the experiment on LNCaP cells (setting [3]) was 115%. The IC50 with LNCaP cells (setting [5]) came out at 11 nM.
Consider `CC(C)(O)[C@@H]1CCCN1CCCCCCCCN1C(=S)N(c2ccc(C#N)c(C(F)(F)F)c2)C(=O)C1(C)C` [Example 40, 4-[3-[8-[(2S)-2-(1-Hydroxy-1-methylethyl)pyrrolidin-1-yl]octyl]-4,4-dimethyl-5-oxo-2-thioxoimidazolidin-1-yl]-2-(trifluoromethyl)benzonitrile], for which the “AR Content at 1 μM” value at androgen receptor (setting [1]) is recorded as 40%. Further, the IC50 with LNCaP cells (setting [2]) came out at 11 nM. Also, the inhibition at 1 µM in the experiment with LNCaP cells (setting [3]) was found to be 118%.
On to `CC1(C)C(=O)N(c2ccc(C#N)c(C(F)(F)F)c2)C(=S)N1CCCCCCCN1C2CCC1CC(O)C2` (centres unmarked) [Example 23, 4-[3-[7-(3-Hydroxy-8-azabicyclo[3.2.1]oct-8-yl)heptyl]-4,4-dimethyl-5-oxo-2-thioxoimidazolidin-1-yl]-2-(trifluoromethyl)benzonitrile], for which the inhibition at 1 µM with LNCaP cells (setting [3]) came out at 79%. Further, the IC50 in the experiment with LNCaP cells (setting [5]) worked out at 48 nM.
On to `CC1(C)C(=O)N(c2ccc(C#N)c(C(F)(F)F)c2)C(=S)N1CCCCCCN1CC[C@@H](C(N)=O)C1` [Example 52, (R)-1-[6-[3-[4-Cyano-3-(trifluoromethyl)phenyl]-5,5-dimethyl-4-oxo-2-thioxoimidazolidin-1-yl]hexyl]pyrrolidine-4-carboxamide], for which the “AR Content at 1 μM” value on androgen receptor (setting [1]) came out at 74%. Also, on androgen receptor (setting [4]), the “AR Content at 10 μM” value is given as 36%. Moreover, the IC50 with LNCaP cells (setting [2]) was 12 nM. Moreover, the inhibition at 1 µM with LNCaP cells (setting [3]) was 100%.
Take `C[C@]1(O)CC[C@H]2[C@@H]3CCC4=CC(=O)CCC4=C3C=C[C@@]21C` [Example R1881, 17β-hydroxy-17α-methylestra-4,9,11-trien-3-one, reference compound]: the “influence on AR content (in words)” value at androgen receptor (LNCaP cells) is listed as “stabilizes the AR protein”. Moreover, the “AR Content” value on androgen receptor (LNCaP cells, R1881 at 10 nM (printed in the 10 μM column), % of DMSO control) was 250%.
In the case of `CC1CCCN1CCCCCCCCN1C(=S)N(c2ccc(C#N)c(C(F)(F)F)c2)C(=O)C1(C)C` (centres unmarked) [Example 36, 4-[4,4-Dimethyl-3-[8-(2-methylpyrrolidin-1-yl)octyl]-5-oxo-2-thioxoimidazolidin-1-yl]-2-(trifluoromethyl)benzonitrile], the inhibition at 1 µM with LNCaP cells (setting [3]) worked out at 96%. Further, the IC50 in the experiment on LNCaP cells (setting [5]) was found to be 15 nM.
Consider `CC1(C)C(=O)N(c2ccc(C#N)c(C(F)(F)F)c2)C(=S)N1CCCCCCCCN1CC[C@@H](O)C1` [Example 28, 4-[3-[8-[(R)-3-Hydroxypyrrolidin-1-yl]octyl]-4,4-dimethyl-5-oxo-2-thioxoimidazolidin-1-yl]-2-(trifluoromethyl)benzonitrile], for which the inhibition at 1 µM in the experiment on LNCaP cells (setting [3]) was 102%. Also, the IC50 in the experiment on LNCaP cells (setting [5]) was determined as 11 nM.
For `COC[C@H]1CCCN1CCCCCCCCCN1C(=S)N(c2ccc(C#N)c(C(F)(F)F)c2)C(=O)C1(C)C` [Example 20, 4-[3-[9-[(2R)-2-(Methoxymethyl)pyrrolidin-1-yl]nonyl]-4,4-dimethyl-5-oxo-2-thioxoimidazolidin-1-yl]-2-(trifluoromethyl)benzonitrile] the same measures were 101% and 29 nM.
For `CC1(C)C(=O)N(c2ccc(C#N)c(C(F)(F)F)c2)C(=S)N1CCCCCCCCCN1CC[C@@H](O)C1` [Example 29, 4-[3-[9-[(R)-3-Hydroxypyrrolidin-1-yl]nonyl]-4,4-dimethyl-5-oxo-2-thioxoimidazolidin-1-yl]-2-(trifluoromethyl)benzonitrile] the same measures were 99% and 35 nM.
For `CC1(C)C(=O)N(c2ccc(C#N)c(C(F)(F)F)c2)C(=S)N1CCCCCCCN1CCCC1` [Example 4, 4-[4,4-Dimethyl-5-oxo-3-[7-(pyrrolidin-1-yl)heptyl]-2-thioxoimidazolidin-1-yl]-2-(trifluoromethyl)benzonitrile] the same measures were 98% and 45 nM.
As for `CC(C)(O)[C@@H]1CCCN1CCCCCCCN1C(=S)N(c2ccc(C#N)c(C(F)(F)F)c2)C(=O)C1(C)C` [Example 39, 4-[3-[7-[(2S)-2-(1-Hydroxy-1-methylethyl)pyrrolidin-1-yl]heptyl]-4,4-dimethyl-5-oxo-2-thioxoimidazolidin-1-yl]-2-(trifluoromethyl)benzonitrile], in the experiment on LNCaP cells (setting [3]), the inhibition at 1 µM was determined as 108%. In the experiment on LNCaP cells (setting [5]), the IC50 stood at 41 nM.

The values above are taken from US7138421B2, “Anti-androgenic pyrrolidines with tumor-inhibiting action” (Schring Aktiengesellschaft, priority 2003, dated 2006).
